Measurements published in publication PMC11963566, “A phase I, single-center, randomized, open-label, three-period crossover study to evaluate the drug–drug interaction between ZSP1273 and oseltamivir in healthy Chinese subjects” (Antimicrobial Agents and Chemotherapy, 2025).
Read-outs that look alike come from different tables or passages of the source.

What was measured:
[1] = Safety assessment: adverse events (CTCAE 5.0, MedDRA 23.1) in healthy subjects; format: in vivo, human
Protocol: Safety assessment was conducted from the first administration of the investigational drug until the end of the trial. Safety indicators included adverse events (AEs), serious adverse events (SAEs), clinical laboratory tests (hematology, biochemistry, and urinalysis), vital signs, physical examination, and 12-lead electrocardiogram.
The severity of AE was assessed according to the CTCAE 5.0 standard and includes grades 1 to 5. Based on the criteria for determining causality between drugs and adverse events, the relationship was classified into five levels: definitely related, probably related, possibly related, probably not related, definitely not related. Among them, definitely related, probably related, and possibly related are defined as drug-related AEs.
Adverse events were coded using Med DRA 23.1 Chinese ([30]) and analyzed based on system organ class (SOC) and preferred term (PT). Adverse events during the treatment period, drug-related adverse events, and serious adverse events were described by frequency, number of cases (n), and incidence rate (%) according to SOC, PT, and the highest severity classification.

[2] = for AUC0-t,ss / AUC0-τ,ss / AUC0-∞,ss / CLss/F / Cmax,ss / Vz/F / t1/2,ss / λz / Ctrough: arithmetic mean ± SD; for Tmax,ss: median (minimum, maximum)
[3] = test system: influenza A (2009 H1N1); details: compared with oseltamivir or pimodivir; cited from earlier work
[4] = in humans; not measured in this study, no reference given; cited from earlier work
[5] = doses up to 1,200 mg; cited from earlier work
[6] = test system: influenza A; details: adult patients, especially 600 mg once per day; cited from earlier work
[7] = SOC Gastrointestinal disorders, probably related
[8] = SOC General disorders and administration site conditions, possibly related
[9] = SOC Infections and infestations, probably not related
[10] = SOC Investigations, possibly related
[11] = SOC Investigations, probably not related
[12] = SOC Skin and subcutaneous tissue disorders, possibly related
[13] = healthy subjects, 5 days dosing
[14] = co-administration ZSP1273 600 mg QD + oseltamivir 75 mg BID, oral, 5 days, plasma, day 5
[15] = co-administration ZSP1273 + oseltamivir, plasma, day 5
[16] = co-administration versus monotherapy analysis
[17] = monotherapy (ZSP1273 600 mg QD or oseltamivir 75 mg BID, oral, 5 days), plasma, day 5
[18] = subjects with AUC_%Extrap >20.0% or Rsq <0.800 excluded

In the case of `O=C(O)[C@H]1C2CCC(CC2)[C@@H]1Nc1nc(-c2n[nH]c3ncc(F)cc23)nc(C2CC2)c1F` [ZSP1273], the “Gastrointestinal disorders (SOC): Cases (%)” value ([1]; AE by system organ class) is reported as 5 (13.9) Cases (%), the “Gastrointestinal disorders (SOC): Occurrences” value ([1]; AE by system organ class) is reported as 5 and the “General disorders and administration site conditions (SOC): Cases (%)” value ([1]; AE by system organ class) is reported as 0 Cases (%). The “General disorders and administration site conditions (SOC): Occurrences” value ([1]; AE by system organ class) was 0, the “Infections and infestations (SOC): Cases (%)” value ([1]; AE by system organ class) was 0 Cases (%) and the “Infections and infestations (SOC): Occurrences” value ([1]; AE by system organ class) was 0. The “Investigations (SOC): Cases (%)” value ([1]; AE by system organ class) was 8 (22.2) Cases (%), the “Investigations (SOC): Occurrences” value ([1]; AE by system organ class) was 18 and the “Skin and subcutaneous tissue disorders (SOC): Cases (%)” value ([1]; AE by system organ class) was 1 (2.8) Cases (%). For the same molecule, the “Skin and subcutaneous tissue disorders (SOC): Occurrences” value ([1]; AE by system organ class) was 1, the “Diarrhea: Cases (%)” value [1, 7] was 5 (13.9) Cases (%) and the “Diarrhea: Occurrences” value [1, 7] was 5. For the same molecule, the “Fever: Cases (%)” value [1, 8] was 0 Cases (%), the “Fever: Occurrences” value [1, 8] was 0 and the “Upper respiratory tract infection (URTI): Cases (%)” value [1, 9] was 0 Cases (%). The “Upper respiratory tract infection (URTI): Occurrences” value [1, 9] was 0, the “Decreased blood triglycerides: Cases (%)” value [1, 10] was 0 Cases (%) and the “Decreased blood triglycerides: Occurrences” value [1, 10] was 0. The “Decreased high-density lipoprotein (HDL): Cases (%)” value [1, 10] was 1 (2.8) Cases (%), the “Decreased high-density lipoprotein (HDL): Occurrences” value [1, 10] was 1 and the “Decreased neutrophil count: Cases (%)” value [1, 10] was 0 Cases (%). For the same molecule, the “Decreased neutrophil count: Occurrences” value [1, 10] was 0, the “Increased blood cholesterol: Cases (%)” value [1, 10] was 2 (5.6) Cases (%) and the “Increased blood cholesterol: Occurrences” value [1, 10] was 2. For the same molecule, the “Increased blood creatinine: Cases (%)” value [1, 10] was 3 (8.3) Cases (%), the “Increased blood creatinine: Occurrences” value [1, 10] was 3 and the “Increased blood triglycerides: Cases (%)” value [1, 10] was 4 (11.1) Cases (%). The “Increased blood triglycerides: Occurrences” value [1, 10] was 4, the “Increased blood uric acid: Cases (%)” value [1, 10] was 2 (5.6) Cases (%) and the “Increased blood uric acid: Occurrences” value [1, 10] was 2. For the same molecule, the “Increased gamma-glutamyl transferase (GGT): Cases (%)” value [1, 10] was 1 (2.8) Cases (%), the “Increased gamma-glutamyl transferase (GGT): Occurrences” value [1, 10] was 1 and the “Increased lipase: Cases (%)” value [1, 10] was 1 (2.8) Cases (%). For the same molecule, the “Increased lipase: Occurrences” value [1, 10] was 1, the “Increased low-density lipoprotein (LDL): Cases (%)” value [1, 10] was 2 (5.6) Cases (%) and the “Increased low-density lipoprotein (LDL): Occurrences” value [1, 10] was 2. The “Crystals present in urine: Cases (%)” value [1, 11] was 0 Cases (%), the “Crystals present in urine: Occurrences” value [1, 11] was 0 and the “Decreased hemoglobin: Cases (%)” value [1, 11] was 2 (5.6) Cases (%). For the same molecule, the “Decreased hemoglobin: Occurrences” value [1, 11] was 2, the “Increased urine specific gravity: Cases (%)” value [1, 11] was 0 Cases (%) and the “Increased urine specific gravity: Occurrences” value [1, 11] was 0. For the same molecule, the “Nitrites present in urine: Cases (%)” value [1, 11] was 0 Cases (%), the “Nitrites present in urine: Occurrences” value [1, 11] was 0 and the “Positive urine occult blood: Cases (%)” value [1, 11] was 0 Cases (%). For the same molecule, the “Positive urine occult blood: Occurrences” value [1, 11] was 0, the “Protein detected in urine: Cases (%)” value [1, 11] was 0 Cases (%) and the “Protein detected in urine: Occurrences” value [1, 11] was 0. For the same molecule, the “Acneiform dermatitis: Cases (%)” value [1, 12] was 0 Cases (%), the “Acneiform dermatitis: Occurrences” value [1, 12] was 0 and the “Maculopapular rash: Cases (%)” value [1, 12] was 1 (2.8) Cases (%). The “Maculopapular rash: Occurrences” value [1, 12] was 1, the “diarrhea, incidence” value ([1]; drug-related adverse event) was 13.9% and the “increased blood triglycerides, incidence” value ([1]; drug-related adverse event) was 11.1%. For the same molecule, the “subjects with drug-related adverse events, incidence” value ([1]; healthy subjects) was 30.6%, the “At least one treatment-emergent adverse event (TEAE): Cases (%)” value [1, 13] was 12 (33.3) Cases (%) and the “At least one treatment-emergent adverse event (TEAE): Occurrences” value [1, 13] was 24. The “At least one treatment-emergent adverse event related to drugs: Cases (%)” value [1, 13] was 11 (30.6) Cases (%), the “At least one treatment-emergent adverse event related to drugs: Occurrences” value [1, 13] was 22 and the “AUC0-∞,ss, intra-individual coefficient of variation” value ([2]; all subjects) was 23.4%. For the same molecule, the “AUC0-∞,ss, geometric mean ratio co-administration/monotherapy” value ([2]; all subjects, no-effect boundary 80%–125%) was 91.8%, the “AUC0-t,ss” value [2, 14] was 14,939.0 ± 6,027.0 (40.3%) h*ng/mL and the “AUC0-τ,ss” value [2, 14] was 13,656.5 ± 4,758.0 (34.8%) h*ng/mL. For the same molecule, the “AUC0-∞,ss” value [2, 14] was 15,865.8 ± 6,635.4 (41.8%) h*ng/mL, the CLss/F [2, 14] was 48.6 ± 15.3 (31.4%) L/h and the “Cmax,ss” value [2, 14] was 6,270.0 ± 3,369.7 (53.7%) ng/mL. The Vz/F [2, 14] was 923.8 ± 659.5 (71.4%) L, the “t1/2,ss” value [2, 14] was 14.0 ± 10.3 (73.5%) h and the λz [2, 14] was 0.070 ± 0.041 (58.7%) 1 /h. For the same molecule, the “Tmax,ss” value [2, 14] was 1.50 (0.25, 4.00) h, the Ctrough ([2]; co-administration ZSP1273 600 mg QD + oseltamivir 75 mg BID, oral, 5 days, plasma) was 77.7 ± 49.7 (64.0%) ng/mL and the “AUC0-t,ss, geometric mean” value [2, 15] was 13,926.7 h*ng/mL. The “AUC0-τ,ss, geometric mean” value [2, 15] was 12,964.7 h*ng/mL, the “Cmax,ss, geometric mean” value [2, 15] was 5,466.0 ng/mL and the “AUC0-∞,ss, geometric mean” value ([2]; co-administration ZSP1273 + oseltamivir, plasma, day 5, all subjects) was 14,749.3 h*ng/mL. The “AUC0-t,ss, intra-individual coefficient of variation” value [2, 16] was 19.9%, the “AUC0-τ,ss, intra-individual coefficient of variation” value [2, 16] was 18.6% and the “Cmax,ss, intra-individual coefficient of variation” value [2, 16] was 49.2%. The “AUC0-∞,ss, geometric mean” value ([2]; co-administration, subjects with AUC_%Extrap >20.0% or Rsq <0.800 excluded) was 14,219.8^b h*ng/mL, the “AUC0-t,ss, geometric mean ratio co-administration/monotherapy” value ([2]; human, in vivo) was 92.8% and the “AUC0-τ,ss, geometric mean ratio co-administration/monotherapy” value ([2]; human, in vivo) was 96.3%. The “Cmax,ss, geometric mean ratio co-administration/monotherapy” value ([2]; human, in vivo) was 99.9%, the “AUC0-t,ss” value [2, 17] was 16,529.6 ± 7,808.2 (47.2%) h*ng/mL and the “AUC0-τ,ss” value [2, 17] was 14,487.1 ± 5,519.8 (38.1%) h*ng/mL. For the same molecule, the “AUC0-∞,ss” value [2, 17] was 18,392.1 ± 12,058.8 (65.6%) h*ng/mL, the CLss/F [2, 17] was 47.4 ± 17.8 (37.5%) L/h and the Vz/F [2, 17] was 1,006.5 ± 1,265.7 (125.8%) L. For the same molecule, the “t1/2,ss” value [2, 17] was 17.8 ± 33.6 (189.1%) h, the λz [2, 17] was 0.074 ± 0.046 (62.5%) 1 /h and the “Tmax,ss” value [2, 17] was 0.88 (0.25, 4.01) h. For the same molecule, the Ctrough ([2]; monotherapy (ZSP1273 600 mg QD or oseltamivir 75 mg BID, oral, 5 days), plasma) was 86.3 ± 77.4 (89.6%) ng/mL, the “Cmax,ss” value ([2]; monotherapy (ZSP1273 tablets 600 mg QD or oseltamivir capsules 75 mg BID, oral, 5 days), plasma, day 5) was 6,421.7 ± 3,660.6 (57.0%) ng/mL and the “AUC0-t,ss, geometric mean” value ([2]; monotherapy, plasma, day 5) was 15,031.4 h*ng/mL. For the same molecule, the “AUC0-τ,ss, geometric mean” value ([2]; monotherapy, plasma, day 5) was 13,543.4 h*ng/mL, the “Cmax,ss, geometric mean” value ([2]; monotherapy, plasma, day 5) was 5,517.1 ng/mL and the “AUC0-∞,ss, geometric mean” value ([2]; monotherapy, plasma, day 5, all subjects) was 16,036.9 h*ng/mL. The “AUC0-∞,ss, geometric mean” value ([2]; monotherapy, subjects with AUC_%Extrap >20.0% or Rsq <0.800 excluded) was 15,576.5^a h*ng/mL, the “AUC0-∞,ss, geometric mean ratio co-administration/monotherapy” value [2, 18] was 94.5% and the “AUC0-∞,ss, intra-individual coefficient of variation” value [2, 18] was 18.8%. For the same molecule, the “pulmonary viral loads and mortality” value [3] was “effectively reduced pulmonary viral loads and mortality”, the “plasma protein binding rate” value [4] was “greater than 98.9%” and the “safety in healthy volunteers” value [5] was “no apparent safety concerns were noticed”. The efficacy versus placebo [6] was “higher efficacy than placebo in ameliorating influenza symptoms and lowering the viral load”.
